Results reported in the NIST ThermoML archive (doi:10.1021/je0601098).

Assays:
[1] = 298.15 K, 101 kPa, Liquid; for speed of sound: Linear variable-path acoustic interferometer
[2] = mn = molality of the nth substance listed, in mol/kg; settings: 298.15 K, 101 kPa, Liquid; for speed of sound: Linear variable-path acoustic interferometer

C1COCCO1 [1,4-dioxane]
[1]
Settings	mass density [kg/m3]	speed of sound [m/s]
–	1028.34	1346.3

C1COCCO1 [1,4-dioxane] + O
[2]
Settings	mass density [kg/m3]	speed of sound [m/s]
m2 = 0	1028.34	1346.3
m2 = 0.07165	1028.35	1347.1
m2 = 0.1214	1028.36	1347.8
m2 = 0.1625	1028.37	1348.4
m2 = 0.2272	1028.39	1349.2
m2 = 0.3262	1028.42	1350
m2 = 0.4214	1028.46	1350.9
m2 = 0.6512	1028.57	1353
m2 = 0.8375	1028.67	1354.8
m2 = 1.022	1028.78	1356.5

CC#N [acetonitrile]
[1]
Settings	mass density [kg/m3]	speed of sound [m/s]
–	776.389	1281.3

CC#N [acetonitrile] + O
[2]
Settings	mass density [kg/m3]	speed of sound [m/s]
m2 = 0	776.389	1281.3
m2 = 0.1197	776.819	1281.5
m2 = 0.1729	777.019	1282
m2 = 0.2244	777.174	1282.2
m2 = 0.2674	777.435	1282.4
m2 = 0.3192	777.518	1282.2
m2 = 0.4188	777.923	1282.6
m2 = 0.5198	778.218	1283
m2 = 0.621	778.584	1284
m2 = 0.7217	778.921	1284.3
m2 = 0.8212	779.276	1284.7
m2 = 0.9205	779.631	1285.5
m2 = 1.02	779.949	1286.5

CCCCO [butan-1-ol]
[1]
Settings	mass density [kg/m3]	speed of sound [m/s]
–	806.024	1241.6

CCCCO [butan-1-ol] + O
[2]
Settings	mass density [kg/m3]	speed of sound [m/s]
m2 = 0	806.024	1241.6
m2 = 0.1588	806.701	1242.9
m2 = 0.2034	806.906	1243.3
m2 = 0.2526	807.034	1243.2
m2 = 0.3019	807.215	1243.6
m2 = 0.3998	807.558	1244.5
m2 = 0.5007	807.906	1246.2
m2 = 0.6011	808.262	1247
m2 = 0.705	808.615	1248
m2 = 0.8032	808.946	1248.8
m2 = 0.9017	809.283	1249.7

CN(C)C=O [dimethylformamide]
[1]
Settings	mass density [kg/m3]	speed of sound [m/s]
–	944.076	1460.2

CN(C)C=O [dimethylformamide] + O
[2]
Settings	mass density [kg/m3]	speed of sound [m/s]
m2 = 0	944.076	1460.2
m2 = 0.08457	944.384	1461.1
m2 = 0.1304	944.54	1461.8
m2 = 0.1738	944.701	1462.4
m2 = 0.2315	944.826	1463.9
m2 = 0.2762	945.027	1464.1
m2 = 0.3215	945.143	1464.2
m2 = 0.4146	945.584	1465.5
m2 = 0.5189	945.835	1467.4
m2 = 0.6115	946.263	1468.1
m2 = 0.7123	946.49	1469.4
m2 = 0.81	946.853	1470.7
m2 = 0.9044	947.103	1472.3
m2 = 1.001	947.417	1473.3

CCO [ethanol]
[1]
Settings	mass density [kg/m3]	speed of sound [m/s]
–	785.207	1142.1

CCO [ethanol] + O
[2]
Settings	mass density [kg/m3]	speed of sound [m/s]
m2 = 0	785.207	1142.1
m2 = 0.214	786.407	1144.6
m2 = 0.2705	786.72	1145.9
m2 = 0.3199	786.998	1146.8
m2 = 0.3659	787.262	1148.6
m2 = 0.4543	787.753	1151
m2 = 0.5541	788.3	1153.2
m2 = 0.6437	788.782	1154.8
m2 = 0.743	789.321	1156.4
m2 = 0.8349	789.775	1157.7
m2 = 0.9264	790.279	1159.5
m2 = 1.019	790.734	1160.1

CO [methanol]
[1]
Settings	mass density [kg/m3]	speed of sound [m/s]
–	786.66	1103.8

CO [methanol] + O
[2]
Settings	mass density [kg/m3]	speed of sound [m/s]
m2 = 0	786.66	1103.8
m2 = 0.1566	787.454	1106
m2 = 0.2143	787.724	1106.2
m2 = 0.2641	788.016	1106.2
m2 = 0.3211	788.308	1107.2
m2 = 0.4121	788.789	1107.9
m2 = 0.5085	789.27	1109.8
m2 = 0.6159	789.834	1112.6
m2 = 0.7089	790.308	1113.4
m2 = 0.8074	790.823	1114.4
m2 = 0.9136	791.368	1117.1
m2 = 1.018	791.86	1118

CCCO [propan-1-ol]
[1]
Settings	mass density [kg/m3]	speed of sound [m/s]
–	799.683	1207

CCCO [propan-1-ol] + O
[2]
Settings	mass density [kg/m3]	speed of sound [m/s]
m2 = 0	799.683	1207
m2 = 0.1627	800.472	1209
m2 = 0.217	800.732	1209.9
m2 = 0.2635	800.961	1210.1
m2 = 0.3129	801.185	1211.5
m2 = 0.4209	801.664	1213
m2 = 0.5137	802.083	1213.4
m2 = 0.6196	802.528	1214.7
m2 = 0.7183	802.982	1215.8
m2 = 0.8205	803.412	1217.2
m2 = 0.9191	803.833	1218.1
m2 = 1.005	804.252	1219.3

C1CCOC1 [tetrahydrofuran]
[1]
Settings	mass density [kg/m3]	speed of sound [m/s]
–	882.056	1280.2

C1CCOC1 [tetrahydrofuran] + O
[2]
Settings	mass density [kg/m3]	speed of sound [m/s]
m2 = 0	882.056	1280.2
m2 = 0.1301	882.394	1281.2
m2 = 0.1845	882.536	1281.7
m2 = 0.2263	882.674	1282
m2 = 0.244	882.753	1282.4
m2 = 0.3258	882.981	1282.9
m2 = 0.4247	883.242	1283.2
m2 = 0.525	883.543	1283.9
m2 = 0.6245	884.032	1284.6
m2 = 0.7309	884.381	1285.1
m2 = 0.8254	884.726	1286
m2 = 0.9243	885.015	1287
m2 = 1.029	885.427	1288
